Measured values published in patent publication US5350748A, “3-thio or amino substituted-benzo[b]thiophene-2-carboxamides and 3-oxygen, thio, or amino substituted-benzofuran-2-carboxamides as inhibitors of cell adhesion” (Warner-Lambert Company, priority 1993, dated 1994).

Assays:
[1] = tested on: HIV-1 activation in OM-10.1 cells; details: poster NCDDG/AIDS, San Diego, 1991; some 48 compounds evaluated; cited from earlier work
[2] = tested on: human neutrophil adhesion to TNF-α-stimulated human umbilical vein endothelial cells (HUVEC); assay: Inhibition of human neutrophil adhesion to TNF-α-stimulated human umbilical vein endothelial cells (51Cr-labeled neutrophils); assay type: cell-based; details: neutrophils labeled with Cr, read-out: Adhesion ECA, % inhibition
Procedure: (§1) The 3-thiol, thioether, amino, alkylamino, or arylamino-benzo[b]thiophene-2-carboxamides and 3-alkoxy, aryloxy, thiol, thioether, amino, alkylamino, or arylamino-benzofuran-2-carboxamides have been shown in an in vitro assay to prevent the adhesion of neutrophils to human umbilical vein endothelial cells (HUVECS) stimulated with TNF-α. In this assay, HUVECS are stimulated with TNF-α for 4 hours, after which the cells are assayed for their ability to adhere to human neutrophils labeled with either ^51 Cr or calcein, a fluorescent dye. The details of this assay are described in the DETAILED DESCRIPTION.
Method for Determining the Inhibition of Human Neutrophil Adhesion to TNF-α, IL-1α, and LPS-Stimulated Human Umbilical Vein Endothelial Cells
(§2) Neutrophils were isolated from anticoagulant-treated venous blood obtained from healthy human volunteers according to the method of Ferrante and Thong [J. Immunol. Methods 24, 389-93 (1978)]. The cell preparations consisted of greater than 98% neutrophils.
Second passage human umbilical vein endothelial cells (HUVEC) (Clonetics, San Diego, Calif.) were seeded into Falcon 24-well cell culture plates (Becton Dickinson, Lincoln Park, N.J.) at approximately 2×10^4 cells per well. The cells were grown to confluent monolayers in endothelial basal medium (EBM, Clonetics) supplemented with 5% fetal calf serum (Hyclone Laboratories, Logan, Utah), 10 ng/mL EGF, 1 μg/mL hydrocortisone, 0.4% bovine brain extract (Clonetics) in 5% CO2 at 37° C.
Neutrophils (30×10^6) were labeled for 60 minutes at 37° C. with 100 μCi Na^51 CrO4 (ICN Biomedicals, Costa Mesa, Calif.) in 2.0 mL Ca^2+ - and Mg^2+ -free Hanks' balanced salt solution (HBSS, GIBCO Laboratories, Grand Island, N.Y.). […]
Stimulation of HUVEC with tumor necrosis factor-α (TNF-α) (Genzyme, Cambridge, Mass.), interleukin (IL-1α) (Genzyme) or E. coli 0111: B4 lipopolysaccharide (LPS) (Sigma) in the presence or absence of drug was initiated 4 hours prior to the addition of neutrophils. […] Lysates were collected and the radioactivity in each well was determined by gamma ray spectroscopy.

[3] = tested on: human neutrophil adhesion to TNF-α-stimulated human umbilical vein endothelial cells (HUVEC); assay: Modified method: inhibition of human neutrophil adhesion to TNF-α-stimulated human umbilical vein endothelial cells (calcein-labeled neutrophils); assay type: cell-based; details: footnote a, neutrophil label not given, IC50 by linear regression from 33.3, 10.0, 3.3 and 1.0 μM, read-out: Adhesion ECA, IC50
Procedure: as §1, §2
Modified Method for Determining the Inhibition of Human Neutrophil Adhesion to TNF-α, IL-1α, and LPS Stimulated Human Umbilical Vein Endothelial Cells
The previous assay using ^51 Cr labeled human neutrophils has been modified. The neutrophils are now labeled with the fluorescent dye calcein. The current method allows for quantification of neutrophil adherence by fluorescence spectroscopy.
Second passage HUVEC (Clonetics Corporation, San Diego, Calif., CC-2617) were seeded into Coring (Corning glass works, Corning, N.Y.) 96-well cell culture plates at approximately 5×10^3 cells/well and grown to confluency in supplemented endothelial basal medium (EBM, MCDB-131, Clonetics, 10 ng/mL EGF, 1 μg/mL hydrocortisone, 0.4% bovine brain extract, 5% Fetal Bovine Serum). One day prior to running the assay, typically 3 days postseeding, the cultures were refed with 0.2 mL/well supplemented EBM (S-EBM).
Test compounds were prepared as 10 mL stock solutions at a concentration of 1.0 mM. The compounds were initially solubilized in 0.1 mL DMSO followed by the addition of 9.9 mL S-EBM. The drug preparations were then diluted in one step to a concentration of 66.6 μM or 200 μM. Solubilizations and dilutions were performed in polystyrene containers.
Recombinant human tumor necrosis factor-α (TNF, Genzyme, Boston, Mass., code TNF-H) was prepared at 400 U/mL in S-EBM. Stock TNF was prepared to 20,000 U/mL in Delbecco's phosphate-buffered saline (PBS, Gibco, Grand Island N.Y.) plus 0.1% BSA and stored at -70° C. HUVEC were washed one time with 0.2 mL warm unsupplemented EBM and then stimulated for 4hours at 37° C. with 200 U/mL TNF in the presence of 33.3 μM or 100 μM test compound. This was accomplished by adding 0.1 mL of 400 U/mL TNF and 0.1 mL 66.6 μM or 0.1 mL of 200 μM test compound. These additions were done slowly as to not disrupt the HUVEC monolayer. Each compound was tested in six wells. Unstimulated (vehicle control) and TNF-stimulated without test compound treatments were also run in each plate.
One hour prior to adding the neutrophils (isolated as previously described) to the HUVEC, neutrophils (5×10^6 /mL) were labeled for 30 minutes at 37° C. with 5 μM calcine-AM (Molecular Probes, Eugene, Oreg.) in Hanks' balanced salt solution plus 0.45% BSA. Stock calcein was prepared to 5mM in anhydrous DMSO and stored desiccated at -20° C. At the end of the incubation the cells were washed two times in cold HBSS and resuspended to a final concentration of 1×10^6 cells/mL in unsupplemented EBM.
At the end of the 4-hour stimulation and immediately prior to the addition of the neutrophils to the HUVEC monolayer, the plates were washed with 0.2 ml warm unsupplemented EBM to remove TNF and drug. Neutrophils (1×10^5 cells) were slowly added to each of the treated wells and incubated for 30 minutes at 37° C. At the end of the incubation the plates were washed two times with 0.2 mL warm unsupplemented EBM followed by a final addition of 0.1 mL for plate scanning.
The fluorescence was determined using a Millipore Cytofluor 2300 system (excitation=480, emission=530, sensitivity=4). […]

[4] = tested on: HIV-1 activation in OM-10.1 cells; assay: Inhibition of activation of latent HIV-1 in chronically infected OM-10.1 cells; assay type: cell-based; details: Human immunodeficiency virus 1
Description: The cellular pathways involved in mediating the activating signal from the plasma membrane to the integrated virus, resulting in HIV-1 expression, are much less clear. Recently, the development of a reliable and simple system for evaluating compounds that could prevent activation of latent HIV was reported at the National […] (NCDDG)/AIDS by P. Feorino, S. T. Butera, T. M. Folks, and R. F. Schinazi, San Diego, Calif., Nov. 3-7, 1991. The assay system employed the OM-10.1 cell line, a unique chronically-infected promyelocytic clone which remains CD4+ until HIV-1 activation with tumor necrosis factor-α. The expression of CD4+ on the cell surface and the activity of reverse transcriptase are used as markers for quantitating viral expression. Alternatively, other HIV markers, such as protease activity, which are known to those of skill in the art can be used. OM-10.1 cells remain CD4^+ until viral activation and respond to tumor necrosis factor induction, and therefore, these cultures are used to conveniently and rapidly examine pharmacologics for an ability to prevent CD4^+ down modulation (decrease in expression of CD4^+ on the cell surface) and HIV-1 expression.
A variety of compounds known to have antiviral properties against either acutely or chronically infected cells were evaluated for their ability to inhibit HIV expression in these OM-10.1 cells. […]

Row | Compound | inhibition of activation of HIV-1 in OM-10.1 cells [1] | inhibition at 100 µM [2] | further results
1 | interferon Y: interferon Y, considered modest inhibitor of the activation of HIV-1 (probably interferon gamma) | modest inhibitors of the activation of HIV-1 |  | 
2 | CC(C)Sc1c(C(N)=O)sc2ccccc12 [Example 2, 3-[(1-Methylethyl)thio]benzo[b]thiophene-2-carboxamide] |  | 34% | 
3 | COc1ccc2sc(C(N)=O)c(SC)c2c1 [Example 4, 5-Methoxy-3-(methylthio)benzo[b]thiophene-2-carboxamide] |  | 81% | 
4 | CC(=O)N(O)CCCCCNC(=O)CCC(=O)N(O)CCCCCNC(=O)CCC(=O)N(O)CCCCCN [desferrioxamine] | modest inhibitors of the activation of HIV-1 |  | 
5 | COc1ccc2sc(C(N)=O)c(Sc3ccccc3)c2c1 [Example 5, 5-Methoxy-3-(phenylthio)benzo[b]thiophene-2-carboxamide] |  | 48% | 
6 | COc1ccc2sc(C(N)=O)c(SC(C)C)c2c1 [Example 1, 5-Methoxy-3-[(1-methylethyl)thio]benzo[b]thiophene-2-carboxamide] |  |  | IC50 [3]: 11.7 µM; IC50 [4]: 0.4 µM
7 | Cc1cn([C@H]2C[C@H](F)[C@@H](CO)O2)c(=O)[nH]c1=O [3'-fluoro-3'-deoxythymidine (FLT), 3'-fluoro-3'-deoxythymidine] | modest inhibitors of the activation of HIV-1 |  | 
